From patent publication US20240400591A1 (Jacobio Pharmaceuticals Co., Ltd., priority 2021, published 2024)

Biological target: T1, His-p53 Y220C (94-294) protein (Homo sapiens, UniProt P04637, Y220C)
T1 construct: His-p53 Y220C (94-294) protein
Assay: In vitro DNA binding assay (HTRF)
Assay type: biochemical
Conditions: % activation normalized to 2 μM Ref-1a high control

EC50 [nM] | Structure (SMILES)
305 | COc1cc(S(C)(=O)=O)ccc1NCC#Cc1sc2c(NC3CCN(CCF)CC3)cccc2c1CC(F)(F)F [Example 36, 1-(2-fluoroethyl)-N-(2-(3-((2-methoxy-4-(methylsulfonyl)phenyl)amino)prop-1-yn-1-yl)-3-(2,2,2-trifluoroethyl)benzo[b]thiophen-7-yl)piperidin-4-amine]
3880 | COc1cc(S(C)(=O)=O)ccc1NCC#Cc1sc2c(NC3CCN(CC(F)(F)F)CC3)cccc2c1CC(F)(F)F [Example 37, N-(2-(3-((2-methoxy-4-(methylsulfonyl)phenyl)amino)prop-1-yn-1-yl)-3-(2,2,2-trifluoroethyl)benzo[b]thiophen-7-yl)-1-(2,2,2-trifluoroethyl)piperidin-4-amine]
194 | COc1cc(S(C)(=O)=O)ccc1NCC#Cc1sc2c(NC3CCNCC3)cccc2c1CC(F)(F)F [Example 38, N-(2-(3-((2-methoxy-4-(methylsulfonyl)phenyl)amino)prop-1-yn-1-yl)-3-(2,2,2-trifluoroethyl)benzo[b]thiophen-7-yl)piperidin-4-amine]
157 | COc1cc(S(C)(=O)=O)ccc1NCC#Cc1cc2c(N[C@H]3CC[C@@H](N4CC5(COC5)C4)CC3)cccc2n1CC(F)(F)F [Example 39, Cis-N-(4-(2-oxa-6-azaspiro[3.3]heptan-6-yl)cyclohexyl)-2-(3-((2-methoxy-4-(methylsulfonyl)phenyl)amino)prop-1-yn-1-yl)-1-(2,2,2-trifluoroethyl)-1H-indol-4-amine]
60 | COc1cc(S(N)(=O)=O)ccc1NCC#Cc1sc2c(NC3CCN(C)CC3F)cccc2c1CC(F)(F)F (centres unmarked) [Example 40, 4-((3-(7-(((Z)-3-fluoro-1-methylpiperidin-4-yl)amino)-3-(2,2,2-trifluoroethyl)benzo[b]thiophen-2-yl)prop-2-yn-1-yl)amino)-3-methoxybenzenesulfonamide]
390 | COc1cc(P(C)(C)=O)ccc1NCC#Cc1sc2c(NC3CCN(C)CC3(F)F)cccc2c1CC(F)(F)F (centres unmarked) [Example 43, (4-((3-(7-((3,3-difluoro-1-methylpiperidin-4-yl)amino)-3-(2,2,2-trifluoroethyl)benzo[b]thiophen-2-yl)prop-2-yn-1-yl)amino)-3-methoxyphenyl)dimethylphosphine oxide]
2910 | C[C@H](C#Cc1sc2c(NC3CCN(C)CC3)cccc2c1CC(F)(F)F)Nc1ccc(S(N)(=O)=O)cc1 [Example 44, (R)-4-((4-(7-((1-methylpiperidin-4-yl)amino)-3-(2,2,2-trifluoroethyl)benzo[b]thiophen-2-yl)but-3-yn-2-yl)amino)benzenesulfonamide]
2790 | C[C@@H](C#Cc1sc2c(NC3CCN(C)CC3)cccc2c1CC(F)(F)F)Nc1ccc(S(N)(=O)=O)cc1 [Example 45, (S)-4-((4-(7-((1-methylpiperidin-4-yl)amino)-3-(2,2,2-trifluoroethyl)benzo[b]thiophen-2-yl)but-3-yn-2-yl)amino)benzenesulfonamide]
38 | COc1cc(C(=O)N2CCN(C)CC2)ccc1NCC#Cc1sc2c(NC3CCN(C)CC3F)cccc2c1CC(F)(F)F (centres unmarked) [Example 49, (4-((3-(7-(((Z)-3-fluoro-1-methylpiperidin-4-yl)amino)-3-(2,2,2-trifluoroethyl)benzo[b]thiophen-2-yl)prop-2-yn-1-yl)amino)-3-methoxyphenyl)(4-methylpiperazin-1-yl)methanone]
86 | COc1cc(C(=O)N2CCOCC2)ccc1NCC#Cc1sc2c(NC3CCN(C)CC3F)cccc2c1CC(F)(F)F (centres unmarked) [Example 50, (4-((3-(7-(((Z)-3-fluoro-1-methylpiperidin-4-yl)amino)-3-(2,2,2-trifluoroethyl)benzo[b]thiophen-2-yl)prop-2-yn-1-yl)amino)-3-methoxyphenyl)(morpholino)methanone]
479 | COc1cc(S(C)(=O)=O)ccc1NCC#Cc1sc2c(NC3CCN(C)CC3)ccc(F)c2c1CC(F)(F)F [Example 51, N-(4-fluoro-2-(3-((2-methoxy-4-(methylsulfonyl)phenyl)amino)prop-1-yn-1-yl)-3-(2,2,2-trifluoroethyl)benzo[b]thiophen-7-yl)-1-methylpiperidin-4-amine]
224 | COc1cc(P(C)(C)=O)ccc1NCC#Cc1sc2c(NCC34CCCN3CCC4)cccc2c1CC(F)(F)F [Example 54, (3-methoxy-4-((3-(7-(((tetrahydro-1H-pyrrolizin-7a(5H)-yl)methyl)amino)-3-(2,2,2-trifluoroethyl)benzo[b]thiophen-2-yl)prop-2-yn-1-yl)amino)phenyl)dimethylphosphine oxide]
122 | COc1cc(S(C)(=O)=O)ccc1NCC#Cc1sc2c(NC3CCCN(C)CC3)cccc2c1CC(F)(F)F (centres unmarked) [Example 55, N-(2-(3-((2-methoxy-4-(methylsulfonyl)phenyl)amino)prop-1-yn-1-yl)-3-(2,2,2-trifluoroethyl)benzo[b]thiophen-7-yl)-1-methylazepan-4-amine]
284 | COc1cc(S(C)(=O)=O)ccc1NCC#Cc1sc2c(NCC3CCN(C)CC3)cccc2c1CC(F)(F)F [Example 56, 2-(3-((2-methoxy-4-(methylsulfonyl)phenyl)amino)prop-1-yn-1-yl)-N-((1-methylpiperidin-4-yl)methyl)-3-(2,2,2-trifluoroethyl)benzo[b]thiophen-7-amine]
90 | COc1cc(C(=O)NO)ccc1NCC#Cc1sc2c(NC3CCN(C)CC3F)cccc2c1CC(F)(F)F (centres unmarked) [Example 58, 4-((3-(7-(((Z)-3-fluoro-1-methylpiperidin-4-yl)amino)-3-(2,2,2-trifluoroethyl)benzo[b]thiophen-2-yl)prop-2-yn-1-yl)amino)-N-hydroxy-3-methoxybenzamide]
220 | COc1nc(C(N)=O)ccc1NCC#Cc1sc2c(NC3CCN(C)CC3F)cccc2c1CC(F)(F)F (centres unmarked) [Example 63, 5-((3-(7-(((Z)-3-fluoro-1-methylpiperidin-4-yl)amino)-3-(2,2,2-trifluoroethyl)benzo[b]thiophen-2-yl)prop-2-yn-1-yl)amino)-6-methoxypicolinamide]
229 | COc1cc(P(C)(C)=O)ccc1NCC#Cc1sc2c(NC[C@@]34CCCN3C[C@H](F)C4)cccc2c1CC(F)(F)F [Example 70, (4-((3-(7-((((2R,7aS)-2-fluorotetrahydro-1H-pyrrolizin-7a(5H)-yl)methyl)amino)-3-(2,2,2-trifluoroethyl)benzo[b]thiophen-2-yl)prop-2-yn-1-yl)amino)-3-methoxyphenyl)dimethylphosphine oxide]
1030 | COc1cc(P(C)(C)=O)ccc1NCC#Cc1sc2c(NC3CCN(C)CC3)ccnc2c1CC(F)(F)F [Example 71, (3-methoxy-4-((3-(7-((1-methylpiperidin-4-yl)amino)-3-(2,2,2-trifluoroethyl)thieno[3,2-b]pyridin-2-yl)prop-2-yn-1-yl)amino)phenyl)dimethylphosphine oxide]
134 | COc1cc(S(C)(=O)=O)ccc1NCC#Cc1sc2c(NC3C4CNCC3CNC4)cccc2c1CC(F)(F)F (centres unmarked) [Example 78, N-(2-(3-((2-methoxy-4-(methylsulfonyl)phenyl)amino)prop-1-yn-1-yl)-3-(2,2,2-trifluoroethyl)benzo[b]thiophen-7-yl)-3,7-diazabicyclo[3.3.1]nonan-9-amine]
272 | COc1cc(P(C)(C)=O)ccc1NCC#Cc1sc2c(NC3CCN(C)CC3C#N)cccc2c1CC(F)(F)F (centres unmarked) [Example 90, 4-((2-(3-((4-(dimethylphosphoryl)-2-methoxyphenyl)amino)prop-1-yn-1-yl)-3-(2,2,2-trifluoroethyl)benzo[b]thiophen-7-yl)amino)-1-methylpiperidine-3-carbonitrile]
5130 | COc1cc(P(C)(C)=O)ccc1NCC#Cc1sc2c(NC3CCN(C)CC3F)cccc2c1-c1cncs1 (centres unmarked) [Example 116, (4-((3-(7-(((Z)-3-fluoro-1-methylpiperidin-4-yl)amino)-3-(thiazol-5-yl)benzo[b]thiophen-2-yl)prop-2-yn-1-yl)amino)-3-methoxyphenyl)dimethylphosphine oxide]
78 | CN1CC[C@H](Nc2cccc3c(CC(F)(F)F)c(C#CCNc4ccc(P(C)(C)=O)cc4OC(F)(F)F)sc23)[C@H](F)C1 [Example 137, (4-((3-(7-(((3R,4S)-3-fluoro-1-methylpiperidin-4-yl)amino)-3-(2,2,2-trifluoroethyl)benzo[b]thiophen-2-yl)prop-2-yn-1-yl)amino)-3-(trifluoromethoxy)phenyl)dimethylphosphine oxide]
129 | COc1cc(P(=O)(C2CC2)C2CC2)ccc1NCC#Cc1sc2c(N[C@H]3CCN(C)C[C@H]3F)cccc2c1CC(F)(F)F [Example 140, dicyclopropyl(4-((3-(7-(((3R,4S)-3-fluoro-1-methylpiperidin-4-yl)amino)-3-(2,2,2-trifluoroethyl)benzo[b]thiophen-2-yl)prop-2-yn-1-yl)amino)-3-methoxyphenyl)phosphine oxide]
102 | COc1cc(P(C)(C)=O)ccc1NCC#Cc1sc2c(N[C@H]3CCN(C)C[C@H]3Cl)cccc2c1CC(F)(F)F [Example 144, (3R,4S)-3-chloro-N-[2-[3-(4-dimethylphosphoryl-2-methoxy-anilino)prop-1-ynyl]-3-(2,2,2-trifluoroethyl)benzothiophen-7-yl]-1-methyl-piperidin-4-amine]

Structure (SMILES) | EC50 [nM]
COc1cc(S(C)(=O)=O)ccc1NCC#Cc1sc2c(N(C)C3CCN(C)CC3F)cccc2c1CC(F)(F)F (centres unmarked) [Example 42, (Z)-3-fluoro-N-(2-(3-((2-methoxy-4-(methylsulfonyl)phenyl)amino)prop-1-yn-1-yl)-3-(2,2,2-trifluoroethyl)benzo[b]thiophen-7-yl)-N,1-dimethylpiperidin-4-amine] | 654
COc1cc(P(C)(C)=O)ccc1NCC#Cc1sc2c(NC3CCN(C)CC3F)cccc2c1CC#N (centres unmarked) [Example 133, 2-(2-(3-((4-(dimethylphosphoryl)-2-methoxyphenyl)amino)prop-1-yn-1-yl)-7-(((E)-3-fluoro-1-methylpiperidin-4-yl)amino)benzo[b]thiophen-3-yl)acetonitrile] | 311
